In assay [1] the test system is SR. Briefly: Induction of G1 cell cycle arrest in human SR cells at 100 nM after 24 to 48 hrs. The class given is functional, cell-based. Conditions: time 24-48 hrs.
The subject of assay [2] is SR. Briefly: Antiproliferative activity against human SR cells assessed as inhibition of cell growth at 10 nM preincubated for 5 days followed by compound washout and measured on day 7 and 9 by CCK8 assay. It is filed as functional, cell-based. Particulars: time 5.0 day. In general terms: Tetrazolium assays rely on reduction of a dye to a coloured formazan, in cell work by metabolically active cells.

Assay [3] concerns the target Signal transducer and activator of transcription 3 (Homo sapiens) (UniProt P40763). The experiment in a line: Inhibition of STAT3 downstream signalling in human NCI-H2228 cells assessed as reduction in pSTAT3 level at 1 to 1000 nM by Western blot analysis. It is filed as cell-based. Particulars: dose 1-1000 nM.
Assay [4] relates to MDA-MB-231. Briefly: Induction of apoptosis in human MDA-MB-231 cells at 100 nM after 72 hrs. It is filed as functional, cell-based.
The test system of the next assay is HEK-293T. The experiment in a line: Antiproliferative activity against human 293T cells overexpressing ALK G1202R mutant assessed as cell growth inhibition after 72 hrs. It is filed as functional, cell-based.
In assay [5] the test system is Calu-1. The experiment in a line: Induction of G1 cell cycle arrest in human Calu-1 cells at 100 nM after 24 to 48 hrs. Conditions: time 24-48 hrs. The class given is functional, cell-based.
Assay [6] has as its target Signal transducer and activator of transcription 3 (Homo sapiens) (UniProt P40763). The experiment in a line: Inhibition of STAT3 downstream signalling in human SR cells assessed as reduction in pSTAT3 level at 10 nM by Western blot analysis. It is filed as cell-based. A general note: In western blotting, separated proteins are transferred to a membrane and probed.
Assay [7] has as its system MDA-MB-231. Briefly: Inhibition of cell migration in human MDA-MB-231 cells at 100 nM after 48 hrs by wound healing assay. The class given is functional, cell-based.
Assay [8] has as its system MDA-MB-231. The experiment in a line: Induction of G1 cell cycle arrest in human MDA-MB-231 cells at 100 nM after 24 to 48 hrs. The class given is functional, cell-based. Particulars: time 24-48 hrs.
Assay [9] has as its system Calu-1. The experiment in a line: Induction of apoptosis in human Calu-1 cells at 100 nM after 72 hrs. It is filed as functional, cell-based.
Assay [10] deals with Calu-1. The experiment in a line: Inhibition of cell migration in human Calu-1 cells at 100 nM after 12 to 24 hrs by wound healing assay. Conditions: time lower […], time upper 24.0 hrs. The class given is functional, cell-based.
Assay [11] concerns MDA-MB-231. Briefly: Inhibition of cell migration in human MDA-MB-231 cells assessed as wound confluence ratio at 500 nM after 48 hrs by wound healing assay. It is filed as functional.
The subject of assay [12] is SR. Briefly: Antiproliferative activity against human SR cells assessed as inhibition of cell growth incubated for 72 hrs by CCK8 assay. It is filed as functional, cell-based.
Assay [13] concerns the target Focal adhesion kinase 1 (Homo sapiens) (UniProt Q05397). Briefly: Induction of FAK degradation in human MDA-MB-231 cells assessed as protein stability at 50 ug/ml after 8 hrs. Particulars: dose 50.0 µg/ml. The class given is cell-based.
For assay [14], the target named is Protein-tyrosine kinase 2-beta (Homo sapiens) (UniProt Q14289). The experiment in a line: Induction of PYK2 degradation in human MDA-MB-231 cells assessed as protein stability at 50 ug/ml after 8 hrs. Particulars: dose 50.0 µg/ml. It is filed as cell-based.
Chain of Protein-tyrosine kinase 2-beta (Homo sapiens) (Q14289 whole entry, looked up): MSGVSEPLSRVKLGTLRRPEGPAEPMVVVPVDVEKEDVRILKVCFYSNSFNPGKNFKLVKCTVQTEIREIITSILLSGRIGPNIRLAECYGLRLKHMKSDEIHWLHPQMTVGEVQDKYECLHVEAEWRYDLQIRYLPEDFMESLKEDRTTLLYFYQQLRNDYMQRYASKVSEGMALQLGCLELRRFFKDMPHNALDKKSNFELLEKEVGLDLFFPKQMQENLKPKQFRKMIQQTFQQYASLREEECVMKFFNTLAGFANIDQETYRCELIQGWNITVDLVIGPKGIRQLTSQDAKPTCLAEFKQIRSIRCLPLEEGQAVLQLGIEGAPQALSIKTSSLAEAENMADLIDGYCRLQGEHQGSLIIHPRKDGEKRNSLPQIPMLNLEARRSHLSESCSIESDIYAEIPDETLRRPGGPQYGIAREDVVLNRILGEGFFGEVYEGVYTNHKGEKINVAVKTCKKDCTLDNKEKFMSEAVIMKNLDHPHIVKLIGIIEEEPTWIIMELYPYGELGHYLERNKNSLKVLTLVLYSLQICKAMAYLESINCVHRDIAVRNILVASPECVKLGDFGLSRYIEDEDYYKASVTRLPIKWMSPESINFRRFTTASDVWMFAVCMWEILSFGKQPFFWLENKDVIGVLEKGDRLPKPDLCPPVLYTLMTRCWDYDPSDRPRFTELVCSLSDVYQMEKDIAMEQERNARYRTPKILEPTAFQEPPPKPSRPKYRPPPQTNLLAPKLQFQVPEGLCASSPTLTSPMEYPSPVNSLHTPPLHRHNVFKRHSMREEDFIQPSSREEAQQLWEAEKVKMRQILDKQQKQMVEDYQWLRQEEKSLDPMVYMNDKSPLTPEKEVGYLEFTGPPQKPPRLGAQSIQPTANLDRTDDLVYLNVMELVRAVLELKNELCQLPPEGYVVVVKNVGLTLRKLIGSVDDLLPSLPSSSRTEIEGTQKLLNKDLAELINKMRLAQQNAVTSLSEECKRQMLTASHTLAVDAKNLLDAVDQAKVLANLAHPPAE
Assay [15] has as its target T1, ALK tyrosine kinase receptor (Homo sapiens, UniProt Q9UM73). The experiment in a line: Induction of ALK degradation in human SR cells assessed as protein stability at 50 ug/ml after 24 hrs. It is filed as cell-based. Conditions: dose 50.0 µg/ml.
Assay [16] addresses T1, ALK tyrosine kinase receptor. Briefly: Induction of ALK degradation in human SR cells at 500 nM after 16 hrs by Western blot analysis. The class given is cell-based.

Structures are written as SMILES. Active and inactive are the calls of the source. The rule behind the calls is not given here.

As usually defined, the inhibition is the change of the read-out against control, counted positive when it falls. The term IC50 denotes the concentration at which inhibition is half-maximal.

T1 sequence (Q9UM73 19-1620 limits assumed): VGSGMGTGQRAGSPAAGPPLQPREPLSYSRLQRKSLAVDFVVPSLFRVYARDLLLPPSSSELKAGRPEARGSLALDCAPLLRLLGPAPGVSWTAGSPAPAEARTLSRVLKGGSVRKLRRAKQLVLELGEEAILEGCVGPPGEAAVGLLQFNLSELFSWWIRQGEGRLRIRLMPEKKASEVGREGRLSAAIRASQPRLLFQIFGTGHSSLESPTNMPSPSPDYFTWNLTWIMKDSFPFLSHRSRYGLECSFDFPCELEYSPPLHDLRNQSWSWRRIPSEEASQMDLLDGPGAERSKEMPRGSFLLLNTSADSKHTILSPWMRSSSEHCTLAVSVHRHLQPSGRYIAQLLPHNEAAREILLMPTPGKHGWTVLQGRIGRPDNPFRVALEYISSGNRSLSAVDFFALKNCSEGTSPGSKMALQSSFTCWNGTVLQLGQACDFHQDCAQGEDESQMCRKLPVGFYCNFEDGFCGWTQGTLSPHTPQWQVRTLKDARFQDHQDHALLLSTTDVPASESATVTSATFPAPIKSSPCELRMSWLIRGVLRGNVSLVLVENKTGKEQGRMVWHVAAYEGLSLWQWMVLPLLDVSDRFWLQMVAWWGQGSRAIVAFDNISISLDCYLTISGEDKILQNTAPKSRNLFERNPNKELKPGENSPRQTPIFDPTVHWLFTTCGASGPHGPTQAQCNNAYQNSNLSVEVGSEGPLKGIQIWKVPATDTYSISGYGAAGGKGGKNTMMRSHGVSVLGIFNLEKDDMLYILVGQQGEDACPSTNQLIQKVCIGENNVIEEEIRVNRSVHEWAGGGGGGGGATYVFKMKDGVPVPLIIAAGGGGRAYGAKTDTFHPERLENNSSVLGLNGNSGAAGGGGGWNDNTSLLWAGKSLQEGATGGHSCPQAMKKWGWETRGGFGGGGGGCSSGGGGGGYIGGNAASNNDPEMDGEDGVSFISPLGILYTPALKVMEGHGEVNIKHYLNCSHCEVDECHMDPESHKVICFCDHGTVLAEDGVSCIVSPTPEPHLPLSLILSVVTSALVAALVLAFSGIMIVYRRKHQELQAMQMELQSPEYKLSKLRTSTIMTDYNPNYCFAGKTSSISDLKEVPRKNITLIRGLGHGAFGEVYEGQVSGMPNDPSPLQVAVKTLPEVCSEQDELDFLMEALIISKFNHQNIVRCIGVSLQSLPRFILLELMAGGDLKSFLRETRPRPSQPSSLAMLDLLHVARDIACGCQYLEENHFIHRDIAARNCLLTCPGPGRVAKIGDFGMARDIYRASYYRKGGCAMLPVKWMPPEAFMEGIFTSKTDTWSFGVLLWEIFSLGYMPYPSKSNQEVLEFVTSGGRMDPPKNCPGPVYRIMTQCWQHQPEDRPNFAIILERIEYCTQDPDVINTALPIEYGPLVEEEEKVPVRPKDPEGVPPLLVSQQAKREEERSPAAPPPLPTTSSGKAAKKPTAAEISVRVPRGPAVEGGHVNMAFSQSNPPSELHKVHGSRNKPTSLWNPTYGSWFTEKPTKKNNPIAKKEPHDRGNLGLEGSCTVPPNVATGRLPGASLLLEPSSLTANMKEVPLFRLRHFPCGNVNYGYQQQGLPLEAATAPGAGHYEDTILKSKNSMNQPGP
Chain of Signal transducer and activator of transcription 3 (Homo sapiens) (P40763 whole entry): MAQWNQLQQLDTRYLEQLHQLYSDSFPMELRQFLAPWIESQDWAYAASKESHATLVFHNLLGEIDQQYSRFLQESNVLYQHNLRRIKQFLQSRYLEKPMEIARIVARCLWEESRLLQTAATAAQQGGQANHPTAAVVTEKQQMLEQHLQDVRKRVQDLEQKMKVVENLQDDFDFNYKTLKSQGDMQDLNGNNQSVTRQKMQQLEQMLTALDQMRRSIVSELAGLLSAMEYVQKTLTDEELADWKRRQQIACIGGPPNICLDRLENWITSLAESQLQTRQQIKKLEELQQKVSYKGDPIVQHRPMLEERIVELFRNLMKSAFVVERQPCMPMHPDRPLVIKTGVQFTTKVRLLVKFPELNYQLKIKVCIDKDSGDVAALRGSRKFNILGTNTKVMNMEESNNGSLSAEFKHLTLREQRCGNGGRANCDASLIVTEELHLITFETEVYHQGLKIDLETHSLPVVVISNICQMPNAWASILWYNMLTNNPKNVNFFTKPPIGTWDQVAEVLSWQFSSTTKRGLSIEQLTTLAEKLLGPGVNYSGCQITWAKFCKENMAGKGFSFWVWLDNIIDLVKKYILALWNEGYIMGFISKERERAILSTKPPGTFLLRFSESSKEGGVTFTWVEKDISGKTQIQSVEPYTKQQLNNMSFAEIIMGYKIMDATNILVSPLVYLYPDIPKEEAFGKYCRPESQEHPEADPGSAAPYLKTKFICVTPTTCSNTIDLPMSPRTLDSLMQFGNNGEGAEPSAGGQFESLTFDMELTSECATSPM
Chain of Focal adhesion kinase 1 (Homo sapiens) (Q05397 2-1052 limits assumed): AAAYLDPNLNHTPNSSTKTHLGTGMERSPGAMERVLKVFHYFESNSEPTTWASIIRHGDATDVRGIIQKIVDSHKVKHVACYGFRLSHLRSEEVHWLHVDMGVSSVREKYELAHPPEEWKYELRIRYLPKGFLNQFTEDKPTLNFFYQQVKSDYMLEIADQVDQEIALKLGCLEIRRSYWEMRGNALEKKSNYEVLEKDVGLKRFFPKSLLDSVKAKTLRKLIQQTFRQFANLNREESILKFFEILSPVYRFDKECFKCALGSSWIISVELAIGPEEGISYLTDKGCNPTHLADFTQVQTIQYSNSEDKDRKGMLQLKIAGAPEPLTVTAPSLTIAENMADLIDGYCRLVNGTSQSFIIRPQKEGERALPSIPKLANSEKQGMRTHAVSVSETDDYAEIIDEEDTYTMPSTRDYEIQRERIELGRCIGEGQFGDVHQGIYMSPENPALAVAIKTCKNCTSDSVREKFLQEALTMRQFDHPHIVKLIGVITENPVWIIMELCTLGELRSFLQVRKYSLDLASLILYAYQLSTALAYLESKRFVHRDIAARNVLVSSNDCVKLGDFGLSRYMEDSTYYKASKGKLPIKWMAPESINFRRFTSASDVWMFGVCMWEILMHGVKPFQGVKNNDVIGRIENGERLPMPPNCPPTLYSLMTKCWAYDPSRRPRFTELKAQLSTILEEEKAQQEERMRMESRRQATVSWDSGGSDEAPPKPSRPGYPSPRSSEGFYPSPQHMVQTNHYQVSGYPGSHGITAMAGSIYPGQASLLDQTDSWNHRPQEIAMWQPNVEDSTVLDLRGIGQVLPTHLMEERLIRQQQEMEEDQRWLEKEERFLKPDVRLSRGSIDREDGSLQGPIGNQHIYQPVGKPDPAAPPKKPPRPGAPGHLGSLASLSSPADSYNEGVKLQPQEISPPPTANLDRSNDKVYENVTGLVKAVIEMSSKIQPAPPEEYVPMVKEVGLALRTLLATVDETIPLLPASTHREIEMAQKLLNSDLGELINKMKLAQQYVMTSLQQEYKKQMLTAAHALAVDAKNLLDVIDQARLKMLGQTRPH

In the case of `COc1cc(N2CCC(N3CCN(C)CC3)CC2)ccc1Nc1ncc(Cl)c(Nc2ccccc2P(C)(C)=O)n1` [BRIGATINIB], the outcome with SR [1] was Active. Further, the outcome in the assay on SR [2], in the assay on MDA-MB-231 [4], in the assay with Calu-1 [5], in the assay with MDA-MB-231 [8] and in the assay on Calu-1 [9] was inactive. Besides, the inhibition entry (in [3]; in the assay on MDA-MB-231 [7]; in the assay on Calu-1 [10]) was “inactive” in each case. In addition, the values for the IC50 with HEK-293T and with SR [12] were 850 nM and 3.3 nM, respectively. In [6], the inhibition entry was “Active”. Further, in the assay on MDA-MB-231 [11], the inhibition at 0.5 µM turned out to be 56%.
Regarding `COc1cc(N2CCC(N3CCN(C(=O)CCCCCCNc4cccc5c4C(=O)N(C4CCC(=O)NC4=O)C5=O)CC3)CC2)ccc1Nc1ncc(Cl)c(Nc2ccccc2P(C)(C)=O)n1` (stereo not drawn), the IC50 in the assay on SR [12] came out at 4.8 nM.
On to `C[C@@H]1C[C@@H]([C@H](O)CC2CC(=O)NC(=O)C2)C(=O)[C@@H](C)C1`, for which the outcome in assay [13], in assay [14] and in [15] was Active.
For `COc1cc(N2CCC(N3CCN(C(=O)CCCNc4cccc5c4C(=O)N(C4CCC(=O)NC4=O)C5=O)CC3)CC2)ccc1Nc1ncc(Cl)c(Nc2ccccc2P(C)(C)=O)n1` (stereo not drawn), the IC50 in the assay with SR [12] turned out to be 2.9 nM.
Still for that read-out and setting: as for `COc1cc(N2CCC(N3CCN(C(=O)CCOCCOCCOCCOCCOCCNc4cccc5c4C(=O)N(C4CCC(=O)NC4=O)C5=O)CC3)CC2)ccc1Nc1ncc(Cl)c(Nc2ccccc2P(C)(C)=O)n1` (stereo not drawn), the figure is 14 nM.
With `COc1cc(N2CCC(N3CCN(C(=O)CCCCNc4cccc5c4C(=O)N(C4CCC(=O)NC4=O)C5=O)CC3)CC2)ccc1Nc1ncc(Cl)c(Nc2ccccc2P(C)(C)=O)n1` (stereo not drawn), the IC50 with SR [12] amounted to 7.4 nM.
Same read-out and setting: the value for `COc1cc(N2CCC(N3CCN(C(=O)CCOCCOCCNc4cccc5c4C(=O)N(C4CCC(=O)NC4=O)C5=O)CC3)CC2)ccc1Nc1ncc(Cl)c(Nc2ccccc2P(C)(C)=O)n1` (stereo not drawn) was 3.6 nM; that for `COc1cc(N2CCC(N3CCN(C(=O)CCOCCOCCOCCNc4cccc5c4C(=O)N(C4CCC(=O)NC4=O)C5=O)CC3)CC2)ccc1Nc1ncc(Cl)c(Nc2ccccc2P(C)(C)=O)n1` (stereo not drawn) was 5.3 nM; that for `COc1cc(N2CCC(N3CCN(C(=O)CCOCCOCCOCCOCCNc4cccc5c4C(=O)N(C4CCC(=O)NC4=O)C5=O)CC3)CC2)ccc1Nc1ncc(Cl)c(Nc2ccccc2P(C)(C)=O)n1` (stereo not drawn) was 11.2 nM.
The same measure, in the same setting: the value for `COc1cc(N2CCC(N3CCN(C(=O)CCCCCNc4cccc5c4C(=O)N(C4CCC(=O)NC4=O)C5=O)CC3)CC2)ccc1Nc1ncc(Cl)c(Nc2ccccc2P(C)(C)=O)n1` (stereo not drawn) was 3.3 nM; that for `COc1cc(N2CCC(N3CCN(C(=O)CCOCCNc4cccc5c4C(=O)N(C4CCC(=O)NC4=O)C5=O)CC3)CC2)ccc1Nc1ncc(Cl)c(Nc2ccccc2P(C)(C)=O)n1` (stereo not drawn) was 3.8 nM.
Regarding `COc1cc(N2CCC(N3CCN(C(=O)CNc4cccc5c4C(=O)N(C4CCC(=O)N(C)C4=O)C5=O)CC3)CC2)ccc1Nc1ncc(Cl)c(Nc2ccccc2P(C)(C)=O)n1` (stereo not drawn), the outcome in assay [16] was Active. In the assay with SR [12], the IC50 came to 16.3 nM.
With `COc1cc(N2CCC(N3CCN(C(=O)CCNc4cccc5c4C(=O)N(C4CCC(=O)NC4=O)C5=O)CC3)CC2)ccc1Nc1ncc(Cl)c(Nc2ccccc2P(C)(C)=O)n1` (stereo not drawn), the IC50 in the assay with SR [12] came to 9.6 nM.

(Values after ChEMBL document CHEMBL5034001 (J Med Chem, 2021).)
